According to the NIST ThermoML archive (doi:10.1021/je900050z):
Where “and” joins values, the source holds several entries; their conditions need not be identical. Identical values can stand only once.

Settings: Liquid

CCCCCCO [hexan-1-ol]
Settings | vapor or sublimation pressure [kPa]
343.46 K | 2.04
344.2 K | 2.16
344.6 K | 2.23
345.36 K | 2.35
346.17 K | 2.47
347.27 K | 2.67
348.1 K | 2.79
348.35 K | 2.85
349.38 K | 3.04
349.75 K | 3.11
350.75 K | 3.32
351.39 K | 3.44
352.2 K | 3.64
352.63 K | 3.73
353 K | 3.83
353.31 K | 3.89
353.82 K | 3.96
355.2 K | 4.31
357.01 K | 4.79
358.22 K | 5.15
359.43 K | 5.51
360.34 K | 5.79
361.12 K | 6.04
361.86 K | 6.29
363.85 K | 6.99
364.61 K | 7.27
365.58 K | 7.64
366.3 K | 7.92
367.44 K | 8.4
368.05 K | 8.67
368.99 K | 9.08
369.67 K | 9.4
370.24 K | 9.67
370.83 K | 9.95
371.45 K | 10.27
372.1 K | 10.59
373 K | 11.05
373.67 K | 11.43
374.19 K | 11.73
375.14 K | 12.27
375.93 K | 12.73
376.59 K | 13.15
377.22 K | 13.53
377.83 K | 13.71
378.01 K | 13.85
378.37 K | 14.15
378.72 K | 14.4
379.1 K | 14.65
379.46 K | 14.91
379.75 K | 15.12
380.06 K | 15.37
380.41 K | 15.61
380.87 K | 15.95
381.15 K | 16.15
381.45 K | 16.37
381.89 K | 16.71
382.25 K | 16.97
382.56 K | 17.21
382.85 K | 17.44
383.18 K | 17.69
383.34 K | 17.84
383.67 K | 18.09
384.08 K | 18.43
384.87 K | 19.05
385.37 K | 19.47
385.86 K | 19.91
386.31 K | 20.31
386.83 K | 20.79
387.23 K | 21.15
387.62 K | 21.48
388.1 K | 21.91
388.59 K | 22.37
389.05 K | 22.79
389.48 K | 23.2
389.89 K | 23.6
390.23 K | 23.95
390.65 K | 24.36
390.93 K | 24.67
391.4 K | 25.13
391.75 K | 25.51
392.06 K | 25.83
392.51 K | 26.31
392.77 K | 26.59
393.14 K | 27

CCCC(C)O (stereo not given) [pentan-2-ol]
Settings | vapor or sublimation pressure
323.84 K | 4.16 kPa
324.19 K | 4.41 kPa
324.55 K | 4.39 kPa
325.09 K | 4.67 kPa
326 K | 4.93 kPa
326.22 K | 4.89 kPa
326.99 K | 5.27 kPa
327.15 K | 5.2 kPa
327.64 K | 5.43 kPa
328.19 K | 5.71 kPa
328.23 K | 5.64 kPa
329.05 K | 5.91 kPa
329.11 K | 5.95 kPa and 6.04 kPa
329.66 K | 6.16 kPa
329.9 K | 6.33 kPa
330.86 K | 6.71 kPa
331.78 K | 7.08 kPa
332.29 K | 7.17 kPa
332.55 K | 7.4 kPa
332.61 K | 7.31 kPa
332.92 K | 7.43 kPa
333.15 K | 7.52 kPa
333.37 K | 7.76 kPa
333.88 K | 7.99 kPa
334.61 K | 8.33 kPa
335.52 K | 8.77 kPa
336.34 K | 9.17 kPa
336.37 K | 9.19 kPa
337.2 K | 9.59 kPa
337.85 K | 9.95 kPa
338.74 K | 10.43 kPa
339.44 K | 10.81 kPa
340.1 K | 11.21 kPa
340.82 K | 11.67 kPa
341.54 K | 12.11 kPa
342.2 K | 12.52 kPa
342.83 K | 12.77 kPa
342.88 K | 12.97 kPa
343.15 K | 13 kPa
343.26 K | 13.07 kPa
343.3 K | 13.11 kPa
343.38 K | 13.16 kPa
344.38 K | 13.99 kPa
345.27 K | 14.65 kPa
346.15 K | 15.31 kPa
347.02 K | 15.96 kPa
347.8 K | 16.63 kPa
348.68 K | 17.32 kPa
349.38 K | 17.95 kPa
350.16 K | 18.63 kPa
350.93 K | 19.31 kPa
351.64 K | 19.96 kPa
351.88 K | 20 kPa
352.33 K | 20.43 kPa
352.6 K | 20.65 kPa
352.7 K | 20.72 kPa
352.76 K | 20.83 kPa
352.89 K | 20.96 kPa
353.05 K | 21.12 kPa
353.1 K | 21.19 kPa
353.15 K | 21.2 kPa
353.35 K | 21.4 kPa
354.12 K | 22.16 kPa
354.72 K | 22.83 kPa
355.42 K | 23.55 kPa
355.92 K | 24.12 kPa
356.39 K | 24.44 kPa
356.55 K | 24.84 kPa
357.15 K | 25.47 kPa
357.76 K | 26.2 kPa
357.79 K | 26 kPa
358.23 K | 26.75 kPa
358.83 K | 27.45 kPa
358.88 K | 27.32 kPa
359.01 K | 27.45 kPa
359.53 K | 28.19 kPa
359.91 K | 28.67 kPa
360.35 K | 29.25 kPa
360.5 K | 29.41 kPa
361.12 K | 30.29 kPa
361.45 K | 30.68 kPa
362.1 K | 31.59 kPa
362.5 K | 32.13 kPa
362.93 K | 32.73 kPa
363.38 K | 33.35 kPa
363.85 K | 34.05 kPa
364.28 K | 34.64 kPa
364.84 K | 35.47 kPa
365.13 K | 35.95 kPa
365.62 K | 36.71 kPa
366.01 K | 37.32 kPa
366.4 K | 37.95 kPa
366.86 K | 38.64 kPa
367.24 K | 39.31 kPa
367.65 K | 39.97 kPa
368.06 K | 40.64 kPa
368.44 K | 41.27 kPa
368.85 K | 41.96 kPa
369.31 K | 42.73 kPa
369.58 K | 43.23 kPa
370.05 K | 44.05 kPa
370.46 K | 44.75 kPa
370.74 K | 45.4 kPa
371.07 K | 45.91 kPa
371.47 K | 46.64 kPa
371.82 K | 47.45 kPa
372.15 K | 47.93 kPa
372.5 K | 48.64 kPa
372.91 K | 49.31 kPa
373.16 K | 49.87 kPa
373.57 K | 50.71 kPa
373.88 K | 51.25 kPa
374.25 K | 52.03 kPa
374.47 K | 52.55 kPa
374.85 K | 53.37 kPa
375.14 K | 53.95 kPa
375.44 K | 54.67 kPa
375.83 K | 55.37 kPa
376.13 K | 56.01 kPa
376.47 K | 56.71 kPa
376.74 K | 57.36 kPa
377.07 K | 58 kPa
377.32 K | 58.64 kPa
377.65 K | 59.32 kPa
377.91 K | 59.97 kPa
378.22 K | 60.67 kPa
378.56 K | 61.4 kPa
378.81 K | 61.97 kPa
379.04 K | 62.61 kPa
379.39 K | 63.39 kPa
379.6 K | 63.91 kPa
379.89 K | 64.6 kPa
380.13 K | 65.2 kPa
380.47 K | 65.99 kPa
380.7 K | 66.63 kPa
381 K | 67.31 kPa
381.26 K | 68.01 kPa
381.53 K | 68.67 kPa
381.76 K | 69.31 kPa
382.08 K | 70.21 kPa
382.28 K | 70.63 kPa
382.55 K | 71.31 kPa
382.78 K | 71.95 kPa
383.05 K | 72.65 kPa
383.29 K | 73.35 kPa
383.53 K | 73.93 kPa
383.76 K | 74.63 kPa
384.09 K | 75.48 kPa
384.26 K | 75.99 kPa
384.5 K | 76.63 kPa
384.74 K | 77.35 kPa
384.95 K | 77.93 kPa
385.42 K | 79.27 kPa
385.65 K | 80 kPa
385.87 K | 80.56 kPa
386.24 K | 81.79 kPa
386.32 K | 81.88 kPa
386.54 K | 82.68 kPa
386.76 K | 83.23 kPa
386.96 K | 84.05 kPa
387.37 K | 85.27 kPa
387.8 K | 86.61 kPa
388.23 K | 88 kPa
388.66 K | 89.39 kPa
389.07 K | 90.69 kPa
389.51 K | 92.16 kPa
389.9 K | 93.44 kPa
390.26 K | 94.61 kPa
390.65 K | 95.95 kPa
391.05 K | 97.27 kPa
391.46 K | 98.71 kPa
